Tested on: green peach aphids (Myzus persicae)
Test: Pesticidal activity against green peach aphid on cabbage plants after soil treatment
Assay type: in vivo
Conditions: for % Control at DAT of 21 days: Table 6; for % Control at DAT of 21 days / % Control at DAT of 28 days: GEROPON SDS 384 ppm
Procedure: Each tested compositions was prepared by mixing a predetermined amount of the CLOSER® SC insecticide (a sulfoxaflor concentrate having a sulfoxaflor concentration of 240 g/L) with a predetermined amount of sodium dioctylsulfosuccinate GEROPON® SDS anionic surfactant in an aqueous medium.
The compositions containing different amounts of sulfoxaflor and sodium dioctylsulfosuccinate GEROPON® SDS surfactant were prepared as shown in TABLE 4. For example, the “Sulfoxaflor at 100 ppm” composition contained about 0.043% weight of sulfoxaflor based on the total weight of the composition (i.e., 100 ppm of sulfoxaflor per one gram of final soil mixture). “Sulfoxaflor at 100 ppm+GEROPON®” composition contained about 0.043% weight of sulfoxaflor based on the total weight of the composition (i.e., 100 ppm of sulfoxaflor per one gram of final soil mixture), and about 0.225% weight of sodium dioctylsulfosuccinate GEROPON® SDS surfactant based on the total weight of the composition (i.e., 384 ppm per one gram of the final soil mixture; 1500 ppm per one gram of the total soil liquid).
The imidacloprid pesticide PROVADO® 1.6 from Bayer CropScience LP (North Carolina, USA) was used as a standard commercial pesticidal composition for aphid control. The imidacloprid pesticide PROVADO® 1.6 was tested at three different loadings: 100 ppm, 25 ppm, and 6.25 ppm per gram of final soil mixture. In this EXAMPLE 6, water was tested as a control composition. Furthermore, an aqueous solution of sodium dioctylsulfosuccinate GEROPON® SDS anionic surfactant was tested.
Cabbage plants (Brassica oleracea capitata L) of uniform size (two new leaf stage) infested with green peach aphids (Myzus persicae) (“GPA”) were used as the study models according to the following procedure:
Cabbage seeds were planted in 3-inch pots containing a peat-based METRO MIX 360® potting soil available from SUN GRO® Horticulture Canada, Ltd. The seeds were propagated in greenhouse zone G4, located in the R&D building of Dow AgroSciences (Indianapolis, Ind., USA), at 26° C. with a relative humidity of 53%. Natural light was supplemented with 1,000-watt metal halide overhead lamps with an average illumination of about 500 μE/m^2·s photosynthetic active radiation for 16 consecutive hours each day.
Each of the 1-ounce clear cups was filled with about 30 grams of the inoculated Midwest field soil having the components as shown in TABLE 5. […] The soil moisture of the Midwest field soil was about 15% as measured by Mettler LJ16 Moisture Analyzer (15 minutes and 100° C.).
The Midwest field soil in each selected 1-ounce cup was treated with about 9 mL of the selected composition using a 10 mL pipette. Deionized water was used as a control. The remainders of the 1-ounce cups were capped, and a small hole was poked into each lid to provide air flow. The remainders of the 1-ounce cups were stored in a controlled environment at 26° C. and covered with a black plastic bag to prevent any light from entering, until being used for the test.
Cabbage plants were gently removed from the 3-inch pots, and the plant roots were washed with water to remove any excess soil. Then, the cabbage plant was transplanted into the 1-ounce cup containing the treated Midwest field soil (one cabbage plant per one 1-ounce cup). The plants were watered as needed after being transplanted.
At the selected number of days after treating the Midwest field soil with the composition (i.e., numbers of days after the soil treatment, “DAT”), the cabbage plant in each 1-ounce cup was infested with GPA by placing a piece of squash leaf infested with about 25 aphids on each cabbage plant. The plants were then placed in a controlled environment at 26° C. for three days.
Five different evaluation times were performed: DAT of 0, 7, 14, 21, or 28 days. For example, for the DAT of zero (0) day, the cabbage plant was infested with GPA on the same day that it was transplanted into the treated Midwest field soil. […]

[1] = dose rate: sulfoxaflor 6.25 ppm, combination 6.25 + 384 ppm
[2] = Table 7, dose rate: sulfoxaflor 6.25 ppm, combination 6.25 + 384 ppm
[3] = Table 8, dose rate: sulfoxaflor 25 ppm, combination 25 + 384 ppm

| SMILES | % Control at DAT of 21 days [1] [%] | % Control at DAT of 28 days [2] [%] | % Control at DAT of 28 days [3] [%] | number of live GPA aphids at DAT of 21 days (FIG. 6, cabbage in treated Midwest soil, counted three days after infestation, loading as named in the composition) |
| --- | --- | --- | --- | --- |
| C[C@@H](c1ccc(C(F)(F)F)nc1)[S@](C)(=O)=NC#N (racemic) [Sulfoxaflor, [methyl(oxo) {1-[6-(trifluoromethyl)-3-pyridyl]ethyl}-λ^6-sulfanylidene]cyanamide, reference compound] | 0 | 0 | 36.39 | – |
| CCCCCCCCOC(=O)CC(C(=O)OCCCCCCCC)S(=O)(=O)O.[Na] (stereo not shown) [GEROPON ® SDS Surfactant, Sodium dioctyl sulfosuccinate] | 0 | 0 | 0 | 30 to 40 |

— patent US20180125074A1, “PESTICIDAL COMPOSITIONS AND RELATED METHODS” (priority 2015, published 2018)
